According to US20240109934A1, “ANTIBIOTICS WITH IMPROVED DRUG RESISTANCE PROFILE” (priority 2021, published 2024):
Read-outs that look alike come from different tables or passages of the source.

Columns and labels:
[1] = test system: multidrug-resistant clinical isolates of S. aureus; test: MIC against multidrug-resistant clinical isolates of S. aureus; assay type: cell-based; settings: for MIC: Staphylococcus aureus
[2] = Mouse liver microsome stability assay; assay type: in vitro ADME; settings: 3 h at 37° C., LC-MS/MS, ± SEM of 3 biological replicates
Protocol: Mouse Liver Microsome Stability Assay. A mixture of PBS (pH 7.4), NADPH regenerating system solution A (Corning Life Sciences), and NADPH regenerating system solution B (Corning Life Sciences) was incubated at 37° C. in a shaking incubator for 5 min. Next, compound was added in DMSO (final concentration 50 μM, 0.5% DMSO) before ice-cold mouse liver microsomes (Thermo Fisher, male CD-1 mice, pooled) were added (final protein concentration of 1 mg/mL). An aliquot was immediately removed, quenched with an equal volume of 100 μM internal standard and centrifuged at 13,000 rcf for 3 min. The reactions were incubated at 37° C. in a shaking incubator for 3 h. A second aliquot was removed and quenched. Samples were analyzed with the 5500 QTRAP LC/MS/MS system (Sciex, Framingham, MA) in Metabolomics Lab of Roy J. Carver Biotechnology Center, University of Illinois at Urbana-Champaign. Software Analyst 1.6.2 was used for data acquisition and analysis. The 1200 series HPLC system (Agilent Technologies, Santa Clara, CA) includes a degasser, an autosampler, and a binary pump. The LC separation was performed on an Agilent Sb-Aq column (4.6×50 mm, […]) with mobile phase A (0.1% formic acid in water) and mobile phase B (0.1% formic acid in acetonitrile). The flow rate was 0.3 mL/min. The linear gradient was as follows: 0-3 min, 100% A; 10-16 min, 5% A; 16.5-22 min, 100% A. The autosampler was set at 10° C. The injection volume was 1 μL. Mass spectra were acquired under both positive (ion spray voltage was +5500 V) and negative (ion spray voltage was −4500 V) electrospray ionization (ESI). The source temperature was 450° C. The curtain gas, ion source gas 1, and ion source gas 2 were 33, 65, and 60 psi, respectively. Multiple reaction monitoring (MRM) was used for quantitation.

[3] = test system: multidrug-resistant clinical isolates of E. faecium; test: MIC against multidrug-resistant clinical isolates of E. faecium; assay type: cell-based; settings: for MIC: Enterococcus faecium
[4] = test system: S. aureus ATCC 29213; test: MIC by micro-dilution broth method (CLSI); assay type: cell-based
[5] = test system: S. aureus resistant mutants with EF-G (fusA) mutations; test: microbe, parasite or virus in culture; assay type: cell-based; settings: for MIC: Staphylococcus aureus
Protocol: (§1) Antimicrobial Susceptibility Tests. Susceptibility testing was performed in biological triplicate, using the micro-dilution broth method as outlined by the Clinical and Laboratory Standards Institute. Bacteria were cultured with cation-adjusted Muller-Hinton broth (Sigma-Aldrich, Cat #90922) in round-bottom 96-well plates (Corning, Cat #3788). Human serum (Ultrafiltrate, unspecified gender, 30K Dalton membrane filtered) was purchased from BioIVT (Hicksville, NY).
Selection of Resistant Mutants. Resistant mutants were selected via the large inoculum method. Briefly, S. aureus ATCC 29213 (1×10^9 CFU) were plated on 100 mm plates of LB agar containing 4, 2, 1, 0.5, and 0.25 μg/mL.
Sequencing of fusA. FusA was amplified by colony PCR. Colonies were picked and diluted in 100 μL sterile H2O. PCR reactions are setup by combining MiFi Mix (Bioline, London, UK), 20 μM primer mix [fusA-F2, fusA_seq1, Forward EF-G2, and Reverse EF-G](S. aureus ATCC 29213), template DNA, and H2O. Reactions were performed on C1000 Thermal Cycler (Bio-Rad, Hercules, CA) with the following conditions: 5 minutes denaturation at 95° C., followed by 30 cycles of 20 seconds at 95° C., 20 seconds at 50° C., and either 1 minute (fusA1) or 1.5 minutes (fusA2) at 72° C. A 10 μL portion of the PCR reaction mixture was analyzed by agarose gel to confirm the product. PCR reactions were purified using GeneJET PCR Purification Kit (Thermo Scientific). PCR amplicons were submitted to the Core DNA Sequencing Facility at the University of Illinois at Urbana-Champaign for Sanger sequencing with the following primers to sequence the fusA [fusA2, fusA_seq1, Forward EF-G2, Forward EF-G3, Forward EF-G4]

[6] = test system: S. aureus 29213; test: MIC shift with 50% human serum; assay type: cell-based; settings: S. aureus 29213, 50% human serum vs none
Protocol: as §1, with “Bacteria were cultured with cation-adjusted Muller-Hinton broth (Sigma-Aldrich, Cat #90922) in round-bottom 96-well plates (Corning, Cat #3788).” left out

CC(=O)O[C@H]1C[C@@]2(C)[C@@H](C[C@@H](O)[C@H]3[C@@]4(C)CC[C@@H](O)[C@@H](C)[C@@H]4CC[C@@]32C)/C1=C(\CCC=C1CCCC1)C(=O)O [FA-CP, (Z)-2-((3R,4S,5S,8S,9S,10S,11R,13R,14S,16S)-16-acetoxy-3,11-dihydroxy-4,8,10,14-tetramethylhexadecahydro-17H-cyclopenta[a]phenanthren-17-ylidene)-5-cyclopentylidenepentanoic acid]
no cross-resistance with vancomycin: Cross-resistance with vancomycin ([1]; 29 clinical isolates of S. aureus) | Cross-resistance with vancomycin ([3]; E. faecium clinical isolates)
0.125 mg/L: MIC ([1]; NRS18, S. aureus NRS18 (NARSA)) | MIC ([1]; NRS23, S. aureus NRS23 (NARSA)) | MIC ([1]; NRS27, S. aureus NRS27 (NARSA)) | MIC ([1]; NRS29, S. aureus NRS29 (NARSA)) | MIC ([1]; NRS68, S. aureus NRS68 (NARSA)) | MIC ([1]; NRS73, S. aureus NRS73 (NARSA)) | MIC ([1]; NRS74, S. aureus NRS74 (NARSA)) | MIC ([1]; NRS76, S. aureus NRS76 (NARSA)) | MIC ([1]; NRS383, S. aureus NRS383 (NARSA)) | MIC ([1]; NRS384, S. aureus NRS384 (NARSA)) | MIC ([1]; S. aureus AR0561 (CDC)) | MIC ([1]; S. aureus AR0562 (CDC)) | MIC ([1]; S. aureus AR0563 (CDC)) | MIC ([1]; S. aureus AR0564 (CDC)) | MIC ([1]; S. aureus AR0566 (CDC)) | MIC ([1]; S. aureus AR0567 (CDC)) | MIC ([1]; S. aureus AR0568 (CDC)) | MIC ([1]; S. aureus AR0570 (CDC)) | MIC ([4]; Staphylococcus aureus, ATCC29213, read-out: MIC Without Human Serum)
0.0625 mg/L: MIC ([1]; NRS3, S. aureus NRS3 (NARSA)) | MIC ([1]; NRS4, S. aureus NRS4 (NARSA)) | MIC ([1]; NRS17, S. aureus NRS17 (NARSA)) | MIC ([1]; NRS21, S. aureus NRS21 (NARSA)) | MIC ([1]; NRS22, S. aureus NRS22 (NARSA)) | MIC ([1]; NRS24, S. aureus NRS24 (NARSA)) | MIC ([1]; NRS26, S. aureus NRS26 (NARSA)) | MIC ([1]; NRS51, S. aureus NRS51 (NARSA)) | MIC ([1]; NRS77, S. aureus NRS77 (NARSA), no noted resistance) | MIC ([1]; NRS382, S. aureus NRS382 (NARSA)) | MIC ([1]; S. aureus AR0565 (CDC))
1 mg/L: MIC ([3]; E. faecium AR0579 (CDC))
512: Fold increase from WT S. aureus of highest MIC ([5]; colonies generated from the same compound at 32× the MIC)
2 mg/L: MIC ([3]; E. faecium AR0574 (CDC)) | MIC ([3]; E. faecium AR0575 (CDC)) | MIC ([3]; E. faecium AR0578 (CDC))
64 mg/L: MIC ([5]; read-out: MIC for FA-CP, strain FA-CP-32X-2, EF-G H457Y) | MIC ([5]; read-out: MIC for FA-CP, strain FA-CP-32X-3, EF-G H457Y) | MIC ([5]; read-out: MIC for FA-CP, strain FA-CP-32X-5, EF-G H457Y) | MIC ([5]; read-out: MIC for FA-CP, strain FA-CP-32X-6, EF-G H457Y) | MIC ([5]; read-out: MIC for FA-CP, strain FA-CP-32X-7, EF-G H457Y) | MIC ([5]; read-out: MIC for FA-CP, strain FA-CP-32X-8, EF-G H457Y) | MIC ([5]; read-out: MIC for FA-CP, strain FA-CP-32X-13, EF-G H457Y) | MIC ([5]; read-out: MIC for FA-CP, strain FA-CP-32X-15, EF-G H457Y) | MIC ([5]; read-out: MIC for FA-CP, strain FA-CP-32X-16, EF-G F88L) | MIC ([5]; read-out: MIC for FA-CP, strain FA-CP-32X-17, EF-G F88L) | MIC ([5]; read-out: MIC for FA-CP, strain FA-CP-32X-18, EF-G H457Y)
8X: Fold Change Increase in MIC with 50% Human Serum [6]
78 ± 4%: Metabolic Stability in Mouse Liver Microsomes (percent remaining) [2]
4 mg/L: MIC ([3]; E. faecium AR0572 (CDC)) | MIC ([3]; E. faecium AR0576 (CDC))
equipotent activity to FA: Antibacterial activity relative to FA ([4]; S. aureus ATCC 29213 MIC)
32 mg/L: MIC ([5]; read-out: MIC for FA-CP, strain FA-CP-32X-1, EF-G H457Y) | MIC ([5]; read-out: MIC for FA-CP, strain FA-CP-32X-4, EF-G H457Y) | MIC ([5]; read-out: MIC for FA-CP, strain FA-CP-32X-9, EF-G H457Y) | MIC ([5]; read-out: MIC for FA-CP, strain FA-CP-32X-10, EF-G D434N) | MIC ([5]; read-out: MIC for FA-CP, strain FA-CP-32X-11, EF-G H457Y) | MIC ([5]; read-out: MIC for FA-CP, strain FA-CP-32X-12, EF-G D434N) | MIC ([5]; read-out: MIC for FA-CP, strain FA-CP-32X-14, EF-G H457Y) | MIC ([5]; read-out: MIC for FA-CP, strain FA-CP-32X-19, EF-G H457Y) | MIC ([5]; read-out: MIC for FA-CP, strain FA-CP-32X-20, EF-G H457Y)
